Reference: the supplement of paper PMC10627819
≈ marks a conversion by molar mass, not a printed value.

Columns and labels:
S. aureus DSM 20231 [1] = system: S. aureus DSM 20231
S. pneumoniae D39V [2] = system: S. pneumoniae D39V
B. subtilis 168 [3] = system: B. subtilis 168
S. aureus Newman [4] = system: S. aureus Newman
S. pneumoniae D39V [5] = assay: fitness (endpoint OD595 vs no drug) (fraction); higher = more growth
Procedure, shortened: (§1)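 Each well of a 384-well plate received 30 µl of culture at OD595 0.01, or 55 µl for S. pneumoniae. TSB, LB Lennox or CY served as media at 37 °C. OD595 was taken every 30 min for 14 h and corrected by subtracting the first reading. Fitness is the optical density at stationary-phase entry divided by the robust mean of no-drug controls, capped at 1.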

S. aureus DSM 20231 [6] = assay: Bliss interaction score (quartile over a dose matrix) (fitness difference); higher = more antagonism (negative = synergy)
Procedure, shortened: (§2)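 Quartiles of the Bliss score were taken over technical, biological and donor/recipient replicates. That score is observed fitness minus the product of the single-drug fitness values, which were inferred from combination data. Fitness itself is OD595 at entry into stationary phase divided by the plate's robust no-drug mean, with a cap at 1.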

S. pneumoniae D39V [7] = assay: as above
Procedure, shortened: as §2

B. subtilis 168 [8] = assay: as above
Procedure, shortened: as §2

S. aureus Newman [9] = assay: as above
Procedure, shortened: as §2

S. aureus DSM 20231 [10] = assay: fitness (endpoint OD595 vs no drug) (fraction); higher = more growth
Procedure, shortened: as §1

B. subtilis 168 [11] = assay: as above
Procedure, shortened: as §1

S. aureus Newman [12] = assay: as above
Procedure, shortened: as §1
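For Bliss interaction score (quartile over a dose matrix) in this document: first quartile when negative (synergy) and third quartile when positive (antagonism).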

CO[C@H]1/C=C/O[C@@]2(C)Oc3c(C)c(O)c4c(O)c(c(/C=N/N5CCN(C)CC5)c(O)c4c3C2=O)NC(=O)/C(C)=C\C=C\[C@H](C)[C@H](O)[C@@H](C)[C@@H](O)[C@@H](C)[C@H](OC(C)=O)[C@@H]1C [Rifampicin]
Details	MIC [µg/mL]
B. subtilis 168 [3]	0.125 (≈ 0.152 µM)
S. aureus DSM 20231 [1]	0.018 (≈ 0.0219 µM)
S. aureus Newman [4]	0.035 (≈ 0.0425 µM)
S. pneumoniae D39V [2]	0.4 (≈ 0.486 µM)

S. pneumoniae D39V [5]
Details	fitness
0.025 µg/mL	0.961
0.05 µg/mL	0.904
0.1 µg/mL	0.322
0.2 µg/mL	0.144

CN[C@@H]1[C@H](O)[C@H](NC)[C@H]2O[C@@]3(O)C(=O)C[C@@H](C)O[C@H]3O[C@@H]2[C@H]1O [Spectinomycin] + CN(N=O)C(=O)N[C@@H](C=O)[C@@H](O)[C@H](O)[C@H](O)CO [Streptozotocin]
Details	Bliss interaction score
B. subtilis 168 [8]	-0.0285
S. aureus DSM 20231 [6]	0.0831
S. aureus Newman [9]	-0.046
S. pneumoniae D39V [7]	-0.0505

fitness
Details	partner 0.15 µg/mL	partner 0.3 µg/mL	partner 0.6 µg/mL	partner 1.2 µg/mL	partner 2.4 µg/mL	partner 4.8 µg/mL
S. aureus DSM 20231 [10], first compound 4 µg/mL	0.831	0.761	0.757	–	–	–
S. aureus DSM 20231 [10], first compound 8 µg/mL	0.875	0.798	0.754	–	–	–
S. aureus DSM 20231 [10], first compound 16 µg/mL	0.769	0.781	0.722	–	–	–
S. aureus Newman [12], first compound 4 µg/mL	0.818	0.665	0.51	–	–	–
S. aureus Newman [12], first compound 8 µg/mL	0.812	0.631	0.478	–	–	–
S. aureus Newman [12], first compound 16 µg/mL	0.813	0.614	0.427	–	–	–
S. pneumoniae D39V [5], first compound 4 µg/mL	–	–	–	0.947	0.928	0.913
S. pneumoniae D39V [5], first compound 8 µg/mL	–	–	–	0.847	0.832	0.81

fitness, one replicate
Details	partner 0.15 µg/mL	partner 0.3 µg/mL	partner 0.6 µg/mL	partner 1.2 µg/mL	partner 2.4 µg/mL	partner 4.8 µg/mL
B. subtilis 168 [11], first compound 2 µg/mL	0.961	0.958	0.991	–	–	–
B. subtilis 168 [11], first compound 4 µg/mL	≥ 1	≥ 1	≥ 1	–	–	–
B. subtilis 168 [11], first compound 8 µg/mL	0.977	0.832	0.926	–	–	–
S. aureus DSM 20231 [10], first compound 32 µg/mL	0.674	0.696	0.686	–	–	–
S. aureus DSM 20231 [10], first compound 64 µg/mL	0.0638	0.0605	0.0885	–	–	–
S. aureus Newman [12], first compound 32 µg/mL	0.519	0.423	0.0868	–	–	–
S. aureus Newman [12], first compound 64 µg/mL	0.0732	0.067	0.0303	–	–	–
S. pneumoniae D39V [5], first compound 16 µg/mL	–	–	–	0.764	0.841	0.686

CO[C@@H]1[C@@H](OC(N)=O)[C@@H](O)[C@H](Oc2ccc3c(O)c(NC(=O)c4ccc(O)c(CC=C(C)C)c4)c(=O)oc3c2C)OC1(C)C [Novobiocin]
Details	MIC [µg/mL]
S. aureus DSM 20231 [1]	0.05 (≈ 0.0816 µM)
S. aureus Newman [4]	0.05 (≈ 0.0816 µM)
S. pneumoniae D39V [2]	2.5 (≈ 4.08 µM)

B. subtilis 168 [11]
Details	fitness
0.0125 µg/mL	0.921
0.025 µg/mL	0.956
0.05 µg/mL	0.986
0.1 µg/mL	0.993
0.2 µg/mL	≥ 1

CN[C@@H]1[C@H](O)[C@H](NC)[C@H]2O[C@@]3(O)C(=O)C[C@@H](C)O[C@H]3O[C@@H]2[C@H]1O [Spectinomycin] + CC1=C\[C@@H](O)CC(=O)Cc2nc(co2)C(=O)N2CCC=C2C(=O)O[C@H](C(C)C)[C@H](C)/C=C/C(=O)NC\C=C\1 [Virginiamycin M1]
Details	Bliss interaction score
B. subtilis 168 [8]	0.042
S. aureus DSM 20231 [6]	-0.0719
S. aureus Newman [9]	0.0692
S. pneumoniae D39V [7]	0.052

fitness
Details	first compound 2 µg/mL	first compound 4 µg/mL	first compound 8 µg/mL	first compound 16 µg/mL
B. subtilis 168 [11], partner 0.0625 µg/mL	0.916	0.979	0.915	–
B. subtilis 168 [11], partner 0.125 µg/mL	0.982	0.941	0.947	–
B. subtilis 168 [11], partner 0.25 µg/mL	≥ 1	0.972	0.875	–
S. aureus DSM 20231 [10], partner 0.0625 µg/mL	–	0.933	0.993	0.809
S. aureus DSM 20231 [10], partner 0.125 µg/mL	–	≥ 1	0.896	0.83
S. aureus DSM 20231 [10], partner 0.25 µg/mL	–	0.961	0.873	0.791
S. aureus Newman [12], partner 0.0625 µg/mL	–	0.936	0.997	0.934
S. aureus Newman [12], partner 0.125 µg/mL	–	0.944	≥ 1	0.961
S. aureus Newman [12], partner 0.25 µg/mL	–	0.942	≥ 1	0.937
S. pneumoniae D39V [5], partner 0.5 µg/mL	–	0.972	0.93	–
S. pneumoniae D39V [5], partner 1 µg/mL	–	0.96	0.916	–
S. pneumoniae D39V [5], partner 2 µg/mL	–	0.931	0.889	0.8

fitness, one replicate
Details	S. aureus DSM 20231 [10]	S. aureus Newman [12]	S. pneumoniae D39V [5]
first compound 4 µg/mL, partner 0.15 µg/mL	–	–	≥ 1
first compound 4 µg/mL, partner 0.3 µg/mL	–	–	0.939
first compound 4 µg/mL, partner 0.5 µg/mL	0.769	0.839	–
first compound 4 µg/mL, partner 1 µg/mL	0.735	0.882	–
first compound 4 µg/mL, partner 2 µg/mL	–	0.769	–
first compound 8 µg/mL, partner 0.15 µg/mL	–	–	0.944
first compound 8 µg/mL, partner 0.3 µg/mL	–	–	0.927
first compound 8 µg/mL, partner 0.5 µg/mL	0.735	0.817	–
first compound 8 µg/mL, partner 1 µg/mL	0.691	0.887	–
first compound 8 µg/mL, partner 2 µg/mL	–	0.787	–
first compound 16 µg/mL, partner 0.15 µg/mL	–	–	0.894
first compound 16 µg/mL, partner 0.3 µg/mL	–	–	0.93
first compound 16 µg/mL, partner 0.5 µg/mL	0.65	0.876	0.857
first compound 16 µg/mL, partner 1 µg/mL	0.704	0.777	0.731
first compound 16 µg/mL, partner 2 µg/mL	–	0.686	–
first compound 32 µg/mL, partner 0.0625 µg/mL	0.643	0.654	–
first compound 32 µg/mL, partner 0.125 µg/mL	0.736	0.629	–
first compound 32 µg/mL, partner 0.25 µg/mL	0.637	0.602	–
first compound 64 µg/mL, partner 0.0625 µg/mL	0.0659	0.0794	–
first compound 64 µg/mL, partner 0.125 µg/mL	0.0603	0.124	–
first compound 64 µg/mL, partner 0.25 µg/mL	0.0858	0.124	–

CC[C@H](C)[C@H](N)C1=N[C@H](C(=O)N[C@@H](CC(C)C)C(=O)N[C@H](CCC(=O)O)C(=O)N[C@H](C(=O)N[C@H]2CCCCNC(=O)[C@H](CC(N)=O)NC(=O)[C@@H](CC(=O)O)NC(=O)[C@H](Cc3cnc[nH]3)NC(=O)[C@@H](Cc3ccccc3)NC(=O)[C@H]([C@@H](C)CC)NC(=O)[C@@H](CCCN)NC2=O)[C@@H](C)CC)CS1 [Bacitracin]
main component drawn
Details	MIC [µg/mL]
B. subtilis 168 [3]	300 (≈ 211 µM)
S. aureus DSM 20231 [1]	80 (≈ 56.2 µM)
S. aureus Newman [4]	75 (≈ 52.7 µM)
S. pneumoniae D39V [2]	1.17 (≈ 0.824 µM)

fitness, main component drawn
Details	18.75 µg/mL	37.5 µg/mL	75 µg/mL	150 µg/mL
B. subtilis 168 [11]	–	0.936	0.912	0.802
S. aureus DSM 20231 [10]	0.628	0.0499	0.0064	–
S. aureus Newman [12]	0.683	0.275	0	–

CC(=O)NC[C@H]1CN(c2ccc(N3CCOCC3)c(F)c2)C(=O)O1 [Linezolid]
Details	MIC [µg/mL]
B. subtilis 168 [3]	0.5 (≈ 1.48 µM)

fitness
Details	0.125 µg/mL	0.2 µg/mL	0.25 µg/mL	0.4 µg/mL	0.5 µg/mL	0.8 µg/mL
B. subtilis 168 [11]	0.722	–	0.239	–	0.0555	–
S. aureus DSM 20231 [10]	0.923	–	0.648	–	0.16	–
S. pneumoniae D39V [5]	–	0.665	–	0.412	–	0.227

CN[C@@H]1[C@H](O)[C@H](NC)[C@H]2O[C@@]3(O)C(=O)C[C@@H](C)O[C@H]3O[C@@H]2[C@H]1O [Spectinomycin] + CCCCCCCCCC(=O)N[C@@H]1[C@H]([C@@H]([C@H](O[C@H]1OC2=C3C=C4C=C2OC5=C(C=C(C=C5)[C@H]([C@H]6C(=O)N[C@@H](C7=C(C(=CC(=C7)O)OC8[C@H]([C@H]([C@@H]([C@H](O8)CO)O)O)O)C9=C(C=CC(=C9)[C@H](C(=O)N6)NC(=O)[C@@H]4NC(=O)[C@@H]1C2=CC(=CC(=C2)OC2=C(C=CC(=C2)[C@H](C(=O)N[C@H](CC2=CC(=C(O3)C=C2)Cl)C(=O)N1)N)O)O)O)C(=O)O)O[C@H]1[C@@H]([C@H]([C@@H]([C@H](O1)CO)O)O)NC(=O)C)Cl)CO)O)O [Teicoplanin]
main component drawn
Details	Bliss interaction score
B. subtilis 168 [8]	0.138
S. aureus DSM 20231 [6]	0.0832
S. aureus Newman [9]	0.0966
S. pneumoniae D39V [7]	-0.0746

fitness, main component drawn
Details	first compound 4 µg/mL	first compound 8 µg/mL	first compound 16 µg/mL
S. aureus DSM 20231 [10], partner 0.1562 µg/mL	0.938	≥ 1	0.889
S. aureus DSM 20231 [10], partner 0.3125 µg/mL	0.962	0.969	0.919
S. aureus DSM 20231 [10], partner 0.625 µg/mL	≥ 1	≥ 1	0.985
S. aureus Newman [12], partner 0.1562 µg/mL	≥ 1	≥ 1	0.993
S. aureus Newman [12], partner 0.3125 µg/mL	≥ 1	0.998	0.973
S. aureus Newman [12], partner 0.625 µg/mL	0.817	0.705	0.831

fitness, one replicate, main component drawn
Details	partner 0.1562 µg/mL	partner 0.3125 µg/mL	partner 0.62 µg/mL	partner 0.625 µg/mL	partner 1.24 µg/mL	partner 2.48 µg/mL
S. aureus DSM 20231 [10], first compound 32 µg/mL	0.788	0.834	–	0.992	–	–
S. aureus DSM 20231 [10], first compound 64 µg/mL	0.0706	0.0748	–	0.0694	–	–
S. aureus Newman [12], first compound 4 µg/mL	–	–	0.792	–	0.743	0.411
S. aureus Newman [12], first compound 8 µg/mL	–	–	0.83	–	0.68	0.505
S. aureus Newman [12], first compound 16 µg/mL	–	–	0.854	–	0.645	0.428
S. aureus Newman [12], first compound 32 µg/mL	0.639	0.694	–	0.666	–	–
S. aureus Newman [12], first compound 64 µg/mL	0.0786	0.071	–	0.0311	–	–
